Measurements reported in PMC9780942, “Antimicrobial Activity and Immunomodulatory Properties of Acidocin A, the Pediocin-like Bacteriocin with the Non-Canonical Structure” (Membranes, 2022).
Positions of bridges follow the written chain, without caps; N, C: chain ends. No end group written: not given here.

Experiments:
[1] = system: E. coli ML-35p cytoplasmic membrane; experiment: Cytoplasmic membrane permeability assay with ONPG; type: cell-based; conditions: PBS pH 7.4 with NaCl, 35 °C, absorbance 405 nm, three independent experiments
Protocol: The ability of the peptides to disrupt the integrity of bacterial membranes was assessed using chromogenic substrates that are unable to enter the intact cell. For these assays, E. coli strain ML-35p was chosen that constitutively expresses β-lactamase (secreted into the periplasmic space), β-galactosidase (that is active in cytoplasm), and lacks lactose permease. Nitrocefin, which is a substrate for lactamase, served as an indicator of increased outer membrane permeability. o-Nitrophenyl-β-D-galactopyranoside (ONPG), a substrate for […], was used to assess the integrity of the cytoplasmic membrane. The bacterial cultures were grown to stationary phase in 3% TSB medium at 37 °C overnight. The cells were washed three times with cold 10 mM phosphate-buffered saline (PBS), pH 7.4 ([…], 2.7 mM KCl, 10 mM Na2HPO4, 1.76 mM KH2PO4), and diluted to the concentration of 3.3 × 10^7 CFU/mL with 10 mM PBS (pH 7.4), containing increased concentration of NaCl (1.2%, or 205 mM) and dissolved nitrocefin (Merck-Millipore, Burlington, MA, USA) or ONPG (AppliChem GmbH, Darmstadt, Germany). […] The plate was incubated at 35 °C, 500 rpm, and the absorbance of the hydrolysis products of ONPG or nitrocefin was measured spectrophotometrically at regular intervals at 405 nm or 492 nm, respectively, using AF2200 microplate reader (Eppendorf, Hamburg, Germany). […]

[2] = system: primary CD14+ blood monocytes; experiment: Cytokine response by human monocytes, multiplex xMAP; type: cell-based; conditions: 2 µM peptide, 24 h, supernatant; for MCP-3: untreated control 52.14; for TNFa: untreated control 67.34; for PDGF-AB/BB: untreated control 86.09; for MIG: untreated control 205.59

## TYYGNGVSCNKKGCSVDWGKAISIIGNNSAANLATGGAAGWKS (disulfide 9-14) [Avicin A]
[1]
  Effect on cytoplasmic membrane integrity (ONPG hydrolysis kinetics): melittin >> acidocin A ≈ pediocin box mutants > peptides without a disulfide bond > avicin A >> AviA(T)
[2]; untreated control 2.28
  IL-1b: 17.13 pg/mL
[2]; untreated control 4.48
  IL-6: 2787 pg/mL
[2]; untreated control 5.44
  VEGFa: <1.52↓ pg/ml
[2]; untreated control 11.73
  MIP-1a: 6628 pg/mL
[2]; untreated control 12.5
  PDGF-AA: 10.87 pg/mL
[2]; untreated control 15.86
  sCD40L: 45.71 pg/mL
[2]; untreated control 19.67
  IP-10: 21.71 pg/mL
[2]; untreated control 34.63
  MIP-1b: 3805 pg/mL
[2]
  MCP-3: 227 pg/mL
  TNFa: 17,982 pg/ml
  PDGF-AB/BB: 99 pg/mL
  MIG: 729 pg/mL
[2]; listed as AviA
  MCP-3: 227.15 pg/mL
  TNFa: 17982 pg/mL
  PDGF-AB/BB: 99.49 pg/mL
  MIG: 729.91 pg/mL
[2]; untreated control 261.2
  IL-1RA: 253.61 pg/mL
[2]; untreated control 311.89
  GROa: 4832 pg/mL
[2]; untreated control 463.06
  MDC: 2303 pg/mL
[2]; untreated control 464.5
  MCP-1: 3950 pg/mL
[2]; untreated control 12488
  IL-8: >36420↑ pg/ml
[2]; untreated control <0.20
  IL-7: <0.20↓ pg/ml
  IL-18: <0.20↓ pg/ml
[2]; untreated control <0.26
  IL-5: <0.26↓ pg/ml
[2]; untreated control <0.33
  IL-4: <0.33↓ pg/ml
[2]; untreated control <0.49
  TNFb: 7.81 pg/mL
[2]; untreated control <0.53
  TGF-a: 2.38 pg/mL
[2]; untreated control <0.68
  IL-3: <0.68↓ pg/ml
[2]; untreated control <0.85
  IL-2: 0.86 pg/mL
[2]; untreated control <1.23
  IL-10: 4.28 pg/mL
[2]; untreated control <1.35
  FLT-3L: <1.35↓ pg/ml
[2]; untreated control <1.39
  GM-CSF: 12.72 pg/mL
[2]; untreated control <1.45
  IL-15: 1.55 pg/mL
[2]; untreated control <1.58
  IL-12 (p70): <1.58↓ pg/ml
[2]; untreated control <1.79
  IFNg: <1.79↓ pg/ml
[2]; untreated control <2.00
  IL-17A: <2.00↓ pg/ml
[2]; untreated control <2.78
  IL-1a: 10.22 pg/mL
[2]; untreated control <2.79
  RANTES: 638.27 pg/mL
[2]; untreated control <2.90
  IL-13: 7.71 pg/mL
[2]; untreated control <3.18
  G-CSF: 190 pg/mL
  IL-12 (p40): 19.93 pg/mL
[2]; untreated control <3.18, listed as AviA
  G-CSF: 190.3 pg/mL
[2]; untreated control <3.89
  IFNa2: 4.69 pg/mL
[2]; untreated control <4.09
  Eotaxin: <4.09↓ pg/ml
[2]; untreated control <4.87
  IL-9: 6.5 pg/mL
[2]; untreated control <4.94
  EGF: 6.51 pg/mL
[2]; untreated control <7.95
  IL-22: 15.81 pg/mL
[2]; untreated control <11.45
  IL-27: 31.07 pg/mL
[2]; untreated control <12.00
  FGF-2: 33.02 pg/mL
[2]; untreated control <14.61
  IL-17F: <14.61↓ pg/ml
[2]; untreated control <19.20
  Fractalkine: <19.20↓ pg/ml
[2]; untreated control <19.97
  IL-17E/IL-25: <19.97↓ pg/ml
[2]; untreated control <23.43
  M-GSF: 261.13 pg/mL
